Assay results reported in US20220111081A1, “COMPOSITION FOR TARGETING MEDULLARY THYROID CANCER” (University-Industry Foundation, Yonsei University, priority 2019, published 2022).

Tests used:
OR51E2 [1] = molecular target: T1, OR51E2 (Homo sapiens, UniProt Q9H255); assay: acetate binding competition experiment (CPM); set-up: OR51E1 (olfactory receptor 51E1) and OR51E2 were highly expressed in MZ-CRC1 and TT cell lines as medullary thyroid cancer cell lines; endogenous in cells; host or cells: MZ-CRC-1 and TT medullary thyroid cancer cell lines; details: MZ-CRC-1 and TT cell lines
T1 sequence (Q9H255 1-320): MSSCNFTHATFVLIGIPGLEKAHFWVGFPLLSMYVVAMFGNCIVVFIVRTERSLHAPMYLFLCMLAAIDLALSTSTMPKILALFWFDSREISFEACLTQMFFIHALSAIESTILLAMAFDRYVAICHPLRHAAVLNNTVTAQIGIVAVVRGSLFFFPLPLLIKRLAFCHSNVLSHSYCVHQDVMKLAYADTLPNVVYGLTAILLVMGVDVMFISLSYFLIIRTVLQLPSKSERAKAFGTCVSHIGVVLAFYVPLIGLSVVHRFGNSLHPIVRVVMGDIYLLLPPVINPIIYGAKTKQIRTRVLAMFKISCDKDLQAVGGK
Protocol: MZ-CRC-1 and TT cell lines as medullary thyroid cancer cell lines were treated with 100 μM cold acetate (acetate labeled with no radioactive isotope), and then treated with ^11C-acetate at concentrations of 2, 5, 10, 20, 40 and 60 μCi to measure CPM. In addition, MZ-CRC-1 and TT cell lines were treated with ^11C-acetate (20 μCi), and then treated with cold acetate at concentrations of 0, 20, 40, 80, 150 and 300 μM to measure CPM.

OR51E2 [2] = assay: CPM after ^11C-acetate treatment of OR51E2 knockout mice; type: in vivo, mouse; details: OR51E2 knockout mice compared with wild-type mice (FIG. 8D)
MZ-CRC-1 cell line [3] = assay: serum calcitonin in nude mice with MZ-CRC-1 tumor after ^11C-acetate; type: in vivo, mouse; details: nude mice (BALB/c) with tumor from MZ-CRC-1 cell line (FIG. 11B)
Protocol: (§1) Nude mice (BALB/c) were administered with the MZ-CRC-1 cell line (4×10^6 cells/mouse) to induce tumorigenesis, and administered with ^11C-acetate, followed by performing positron emission tomography (PET).

MZ-CRC-1 cell line [4] = assay: positron emission tomography (PET) of nude mice with MZ-CRC-1 tumor; type: in vivo, mouse; details: nude mice (BALB/c) with tumor from MZ-CRC-1 cell line (FIG. 11A)
Protocol: as §1

OR51E2 [5] = molecular target: T1, OR51E2; assay: ^11C-acetate positron emission and CPM in thyroid cancer cell lines; type: cell-based; set-up: OR51E1 (olfactory receptor 51E1) and OR51E2 were highly expressed in MZ-CRC1 and TT cell lines as medullary thyroid cancer cell lines; endogenous in cells; host or cells: MZ-CRC-1 and TT medullary thyroid cancer cell lines
Protocol: Thyroid cancer cell lines having different origins were treated with ^11C-acetate labeled with a radioactive isotope (20 μCi), and the degree of positron emission was identified. A control group was treated with F-18-fluorodeoxyglucose as the most commonly used radiopharmaceutical.

OR51E2 [6] = details: OR51E2 knockout mice, 30 minutes after injecting 100 μl of 99% acetate (FIG. 7B)
Protocol: (§2) C57/BL6 mice in which a green fluorescent protein (GFP) was inserted into the OR51E2 gene loci were purchased (Jackson Laboratory, USA) and reared under sterile conditions. Through a week of acclimatization, the mice were each sacrificed 30 minutes after injecting 100 μl of 99% acetate thereto to separate the thyroid gland and serum. The thyroid gland was stained with calcitonin and a GFP antibody, respectively, and the calcitonin concentration was measured in the separated serum.

OR51E2 [7] = molecular target: OR51E2 (Mus musculus, UniProt Q8VBV9); details: wild-type mice, 30 minutes after injecting 100 μl of 99% acetate (FIG. 7B)
Sequence of OR51E2 (Mus musculus, UniProt Q8VBV9) (Q8VBV9 whole entry): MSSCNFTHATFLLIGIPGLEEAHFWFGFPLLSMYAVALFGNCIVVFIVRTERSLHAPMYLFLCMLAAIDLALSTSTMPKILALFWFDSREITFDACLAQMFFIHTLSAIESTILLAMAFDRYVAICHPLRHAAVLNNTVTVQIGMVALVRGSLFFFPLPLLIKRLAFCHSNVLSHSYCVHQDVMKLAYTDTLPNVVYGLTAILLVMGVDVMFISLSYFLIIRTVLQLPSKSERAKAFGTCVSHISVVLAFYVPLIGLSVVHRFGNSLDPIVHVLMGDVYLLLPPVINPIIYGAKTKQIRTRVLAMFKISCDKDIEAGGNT
Protocol: as §2

OR51E2 [8] = molecular target: T1, OR51E2; details: MZ-CRC-1 cell line, 100 μM acetate, stained after 1, 5 and 30 minutes (FIG. 10)
Protocol: To identify whether the binding of acetate and OR51E2 can be utilized in the diagnosis of thyroid cancer, the MZ-CRC-1 cell line (parafollicular C-cells) was treated with 100 μM of acetate, and the cells were stained after 1, 5 and 30 minutes to identify OR51E2.

parafollicular C-cells = parafollicular C-cells treated with acetate at each concentration (FIG. 5A)
Protocol: (§3) Thereafter, the parafollicular C-cells were treated with acetate at each concentration and cultured, and then using a bromodeoxyuridine (BrdU) cell proliferation assay kit (Millipore, Mass.), the degree of BrdU binding was analyzed according to the manufacturer's protocol.

OR51E2 [9] = molecular target: T1, OR51E2
Protocol: as §3

intracellular cAMP = details: parafollicular C-cell line, acetate treatment (FIG. 4C)
Protocol: (§4) Since OR51E1 and OR51E2 were highly expressed in the medullary thyroid cancer cell lines, MZ-CRC1 and TT cell lines as parafollicular C-cell lines were treated with acetate, nonanoic acid, propionate and azelaic acid as olfactory receptor ligands by 100 μM each to identify their influences.

p42/44 MAPK = tested on: p42/44 MAPK
Protocol: as §4

[10] = tested on: CREB (cAMP response element-binding protein); details: parafollicular C-cell line, acetate concentration series (FIG. 4B)
Protocol: as §4

| SMILES | CPM (OR51E2 [1]; first 100 μM cold acetate, then ^11C-acetate 2, 5, 10, 20, 40 and 60 μCi (FIG. 9A, 9B)) | CPM (OR51E2 [2]) | calcitonin concentration in the serum (MZ-CRC-1 cell line [3]) | PET tracer accumulation (MZ-CRC-1 cell line [4]) | level of positron emission (OR51E2 [5]; medullary thyroid cancer cell line versus other thyroid cancer cell lines, 20 μCi (FIG. 8A)) | CPM (counter per minute) (OR51E2 [5]; medullary thyroid cancer cell line versus other thyroid cancer cell lines, 20 μCi (FIG. 8B)) | CPM (OR51E2 [5]; medullary thyroid cancer cell line with OR51E2 expression suppressed by siOR51E2 (FIG. 8C)) | CPM (OR51E2 [1]; first ^11C-acetate 20 μCi, then cold acetate 0, 20, 40, 80, 150 and 300 μM (FIG. 9C, 9D)) | level of calcitonin in the serum (OR51E2 [6]) | level of calcitonin in the serum (OR51E2 [7]) | location of OR51E2 (staining) (OR51E2 [8]) | cell proliferation (BrdU binding level) (parafollicular C-cells) | release of calcitonin (OR51E2 [9]; expression of OR51E2 suppressed with siRNA, then acetate treatment (FIG. 5C)) | intracellular expression level of calcitonin (OR51E2 [9]; parafollicular C-cell line, acetate treatment (FIG. 5B)) | level of intracellular cAMP (intracellular cAMP) | level of phosphorylation of p42/44 MAPK (p42/44 MAPK; MZ-CRC1 and TT cell lines, ligands 100 μM each (FIG. 4A)) | phosphorylation level of p42/44 MAPK versus concentration (p42/44 MAPK; parafollicular C-cell line, acetate concentration series (FIG. 4B)) | phosphorylation level of CREB versus concentration [10] |
| --- | --- | --- | --- | --- | --- | --- | --- | --- | --- | --- | --- | --- | --- | --- | --- | --- | --- | --- |
| C[11C](=O)O [^11C-acetate] | increased as the treatment concentration increased | did not increase | increased | accumulated in the tumor-producing sites | high | highest | did not increase |  |  |  |  |  |  |  |  |  |  |  |
| CC(=O)O [acetate] |  |  |  |  |  |  |  | decreased as the treatment concentration increased | maintained almost constant | increased | migrated into the cells | increased | not increased | increased | increased | increased | increased in proportion to the acetate treatment concentration | increased in proportion to the acetate treatment concentration |
